This passage reports EC50 results from US12421206B2, “Aryl-n-aryl derivatives for treating a RNA virus infection” (ABIVAX, priority 2018, dated 2025).

This experiment relates to RSV A2. Nature of the experiment: RSV inhibition (cytopathic effect inhibition) using Viral ToxGlo assay in HEp-2 cells. Conditions: human respiratory syncytial virus, RSV A2, MOI 0.5, HEp-2 cells, 72 h p.i. Type of experiment: cell-based. In outline: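 HEp-2 cells in EMEM with 2% FBS were infected with RSV A2 at MOI 0.5 immediately after compound (≤1% DMSO) and incubated 72 h at 37 °C. Viral ToxGlo luminescence gave % cytopathic effect inhibition versus virus control, plus cytotoxicity versus cell control; EC50 derived from dose-response.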
With `O=C(NCCC1CCCCC1)c1cccc(Nc2ccc(OCc3ccccn3)cc2)c1` [Compound 38, N-(2-cyclohexylethyl)-3-((4-(pyridin-2-ylmethoxy)phenyl)amino)benzamide], the EC50 was found to be 281 nM.

Turning to `Cc1cc(OCc2ccccn2)ccc1Nc1cccc(C(=O)NCCC2CC2)c1` [Compound 45, N-(2-cyclopropylethyl)-3-((2-methyl-4-(pyridin-2-ylmethoxy)phenyl)amino)benzamide], the EC50 came out at 280 nM.

On to `Cc1cc(OCc2ccccn2)ccc1Nc1cccc(C(=O)NCCC2CCC2)c1` [Compound 46, N-(2-cyclobutylethyl)-3-((2-methyl-4-(pyridin-2-ylmethoxy)phenyl)amino)benzamide], for which the EC50 is 199 nM.

`CCCC(C)NC(=O)c1cccc(Nc2ccc(OCc3ccccn3)cc2)c1` (centres unmarked) [Compound 64, N-(pentan-2-yl)-3-((4-(pyridin-2-ylmethoxy)phenyl)amino)benzamide]: the EC50 came out at 341 nM.

Take `Cc1cc(OCc2ccccn2)ccc1Nc1cccc(NC(=O)NCCC(C)C)c1` [Compound 68, 1-isopentyl-3-(3-((2-methyl-4-(pyridin-2-ylmethoxy)phenyl)amino)phenyl)urea]: the EC50 was 144 nM.
